According to patent publication US4315928A, “N-Aminosulfenyl carbamate compounds, compositions and use” (priority 1975, dated 1982):

Legend:
in vivo = conditions: rat, in vivo, po
Experimental: (§1) These compositions were also evaluated to determine their peroral toxicity to mammals by conventional methods. The animal selected for this experiment was the rat.

rat = assay: in vivo; conditions: oral, statement on Table I
Experimental: as §1

green beans = assay: Phytotoxicity Test, green beans; type: in vivo; parameters: key: A rating of 1 indicates no perceptible injury; ratings of 2, 3 and 4 indicate intermediate degrees of injury; ratings of 2, 3 and 4 indicate intermediate degrees of injury; ratings of 2, 3 and 4 indicate intermediate degrees of injury; 5 indicates the plant was dead; conditions: ten days
Experimental: (§2) Suspensions of the test compounds were prepared by dissolving one gram of compound in 50 milliliters of acetone in which had been dissolved 0.1 gram (10 percent of the weight of compound) of an alkylphenoxy polyethoxyethanol surfactant, as an emulsifying or dispersing agent. The resulting solution was mixed into 150 milliliters of water to give roughly 200 milliliters of a suspension containing the compound in finely divided form. The thus-prepared stock suspension contained 0.5 percent by weight of compound. The test concentrations in parts per million by weight employed in the tests described hereinbelow were obtained by appropriate dilutions of the stock suspension with water. The test procedures were as follows:
(§3) Experiments were also conducted to determine the phytotoxicity of representative compositions with respect to healthy fresh plants. Solutions of the compounds were prepared as described above to provide a concentration of 2500 parts per million of the test compound. The test plants were sprayed in accordance with the procedure described above for the Mite Foliage Spray Test so as to deliver approximately 100 milliliters of test solution to the leaves of each plant tested. The sprayed plants and controls were set aside for approximately one hour to allow the solutions to dry and were then placed in the greenhouse. After ten days the plants were visually inspected to determine the extent of foliage injury. A rating of 1 indicates no perceptible injury; 5 indicates the plant was dead and ratings of 2, 3 and 4 indicate intermediate degrees of injury based upon the number and extent to which leaves were injured.

corn = assay: Phytotoxicity Test, corn; type: in vivo; parameters: key: A rating of 1 indicates no perceptible injury; ratings of 2, 3 and 4 indicate intermediate degrees of injury; ratings of 2, 3 and 4 indicate intermediate degrees of injury; ratings of 2, 3 and 4 indicate intermediate degrees of injury; 5 indicates the plant was dead; conditions: ten days
Experimental: as §2, §3

tomato = assay: Phytotoxicity Test, tomato; type: in vivo; parameters: key: A rating of 1 indicates no perceptible injury; ratings of 2, 3 and 4 indicate intermediate degrees of injury; ratings of 2, 3 and 4 indicate intermediate degrees of injury; ratings of 2, 3 and 4 indicate intermediate degrees of injury; 5 indicates the plant was dead; conditions: ten days
Experimental: as §2, §3

cotton = assay: Phytotoxicity Test, cotton; type: in vivo; parameters: key: A rating of 1 indicates no perceptible injury; ratings of 2, 3 and 4 indicate intermediate degrees of injury; ratings of 2, 3 and 4 indicate intermediate degrees of injury; ratings of 2, 3 and 4 indicate intermediate degrees of injury; 5 indicates the plant was dead; conditions: ten days
Experimental: as §2, §3

soybeans = assay: Phytotoxicity Test, soybeans; type: in vivo; parameters: key: A rating of 1 indicates no perceptible injury; ratings of 2, 3 and 4 indicate intermediate degrees of injury; ratings of 2, 3 and 4 indicate intermediate degrees of injury; ratings of 2, 3 and 4 indicate intermediate degrees of injury; 5 indicates the plant was dead; conditions: ten days
Experimental: as §2, §3

[1] = test system: bean aphid (Aphis fabae Scop.); assay: whole plant or invertebrate; conditions: foliar, 24 h, read-out: Insect Toxicity, % Kill at 250 ppm, BA
[2] = test system: two-spotted mite (Tetranychus urticae Koch); assay: whole plant or invertebrate; conditions: foliar, 144 h, read-out: Insect Toxicity, % Kill at 250 ppm, TSM
[3] = test system: southern armyworm (Prodenia eridania, (Cram.)); assay: whole plant or invertebrate; conditions: Spodoptera eridania, 72 h, read-out: Insect Toxicity, % Kill at 250 ppm, SAW
[4] = test system: Mexican bean beetle (Epilachna varivestis, Muls.); assay: whole plant or invertebrate; conditions: 72 h, read-out: Insect Toxicity, % Kill at 250 ppm, MBB
[5] = test system: house flies (Musca domestica, L.); assay: whole plant or invertebrate; conditions: po, 24 h, read-out: Insect Toxicity, % Kill at 250 ppm, HF

| Structure (SMILES) | LD50 (in vivo) [mg/kg] | mammalian toxicity (in words) (rat) | Crop Phytotoxicity, Injury Rating at 2500 ppm, GB (green beans) | Crop Phytotoxicity, Injury Rating at 2500 ppm, CN (corn) | Crop Phytotoxicity, Injury Rating at 2500 ppm, TOM (tomato) | Crop Phytotoxicity, Injury Rating at 2500 ppm, COT. (cotton) | Crop Phytotoxicity, Injury Rating at 2500 ppm, SOYBN. (soybeans) | mortality at 250 ppm [1] [%] | mortality at 250 ppm [2] [%] | mortality at 250 ppm [3] [%] | mortality at 250 ppm [4] [%] | mortality at 250 ppm [5] [%] |
| --- | --- | --- | --- | --- | --- | --- | --- | --- | --- | --- | --- | --- |
| CCCCN(CCCC)SN(C)C(=O)ON=C(C)SC [Compound 28, S-Methyl N-[N'-Methyl-N'-(Di-n-butylaminosulfenyl)Carbamoyloxy]-Thioacetimidate] | 317 | extremely low mammalian toxicity | 1 | 1 | 1 | 1 | 1 | 100 | 50 | 100 | 100 | 100 |
| CSC(C)=NOC(=O)N(C)SN(C)C [Compound 11, S-Methyl N-[N'-Methyl-N'-(Dimethylaminosulfenyl)carbamoyloxy]thioacetimidate] | 141 | extremely low mammalian toxicity | 1 | 1 | 2 | 1 | 1 | 100 | 50 | 100 | 100 | 100 |
| CSC(C)=NOC(=O)N(C)SN1CCCCC1 [Compound 12, S-Methyl-N-[N'-Methyl-N'-(1-Piperidinosulfenyl)Carbamoyloxy]Thioacetimidate] | 141 | extremely low mammalian toxicity | 1 | 1 | 1 | 1 | 1 | 100 | 100 | 100 | 100 | 100 |
| CCN(CC)SN(C)C(=O)ON=C(C)SC [Compound 17] | 178 | extremely low mammalian toxicity | 2 | 2 | 1 | 2 | 2 | 100 | 80 | 100 | 100 | 100 |
